Counter-ions that a name gives are not always drawn. Like-named read-outs stand apart in the source and are kept apart here.
System: Acinetobacter baumannii ATCC 17978
Test: Antimicrobial susceptibility testing: 90% growth inhibitory concentration (IC90) determination
Assay type: cell-based
How it was run: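 Growth of the Acinetobacter baumannii strain was followed by optical density at 600 nm every 20 minutes for 16h at 35±2° C. Inoculum was ~5×10^(5) CFU/ml in Iso-Sensitest medium, with twofold compound dilutions (e.g. 50 to 0.097 μM final). The 90% inhibitory concentration was derived in log-phase growth.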

[1] = Acinetobacter baumannii, ATCC17978, 16 h, 90% growth inhibitory concentration, Acinetobacter baumannii ATCC17978, Iso-Sensitest broth, OD 600 nm over 16h, read-out: ATCC17978 IC90
[2] = 90% growth inhibitory concentration, Acinetobacter baumannii ATCC17978, Iso-Sensitest broth, OD 600 nm over 16h, read-out: ATCC17978 IC90

Row | IC90 [1] [µM] | SMILES | further results
1 | 0.42 | COc1ccc(-c2cnc3c(Nc4ccc(C(=O)NCCN5CCNCC5)c(C)c4)nccn23)cc1F [Example 199, 4-[[3-(3-fluoro-4-methoxyphenyl)imidazo[1,2-a]pyrazin-8-yl]amino]-2-methyl-N-(2-piperazin-1-ylethyl)benzamide;hydrochlo-ride] | –
2 | 1.1 | Cc1cc(Nc2nccn3c(-c4ccc(OC(F)F)cc4)cnc23)ccc1C(=O)NCCN1CCNC(=O)C1 [Example 221, 4-[[3-[4-(difluoromethoxy)phenyl]im-idazo[1,2-a]pyrazin-8-yl]amino]-2-methyl-N-[2-(3-oxopiperazin-1-yl)ethyl]benzamide] | –
3 | 0.84 | CCc1cc(Nc2nccn3c(-c4ccc(Oc5cc(OC)ncn5)c(F)c4F)cnc23)ccc1C(=O)N[C@@H](C)CN [Example 463, (S)-N-(1-aminopropan-2-yl)-4-((3-(2,3-difluoro-4-((6-methoxypyrimidin-4-yl)oxy)phenyl)imidazo[1,2-a]pyrazin-8-yl)amino)-2-ethylbenzamide] | –
4 | 0.62 | CCc1cc(Nc2nccn3c(-c4ccc(OC(F)F)c(F)c4F)cnc23)ccc1C(=O)NCC1(O)CNC1 [Example 307, 4-[[3-[4-(difluoromethoxy)-2,3-difluorophenyl]imidazo[1,2-a]pyrazin-8-yl]amino]-2-ethyl-N-[(3-hydroxyazetidin-3-yl)methyl]benzamide;hydro-chloride] | –
5 | 2.2 | COc1ccc(-c2cnc3c(Nc4ccc(C(=O)N(C)CCN(C)C)c(C)c4)nccn23)cc1 [Example 18, N-(2-(dimethylamino)ethyl)-4-((3-(4-methoxyphenyl)imidazo [1,2-a]pyrazin-8-yl)amino)-N,2-dimethylbenzamide] | –
6 | 0.17 | CCc1cc(Nc2nccn3c(-c4ccc(OC)c(F)c4F)cnc23)ccc1C(=O)NCC1CCN(Cc2cccnc2)CC1 [Example 554, 4-[[3-(2,3-difluoro-4-methoxy-phenyl)imidazo[1,2-a]pyrazin-8-yl]amino]-2-ethyl-N-[[1-(3-pyridylmethyl)-4-piperidyl]methyl]benzamide] | –
7 | 0.069 | COc1ccc(-c2cnc3c(Nc4ccc(C(=O)N[C@H](C)CNC(C)=N)c(Cl)c4)nccn23)c(F)c1F [Example 501, 2-chloro-4-[[3-(2,3-difluoro-4-methoxyphenyl)imidazo[1,2-a]pyrazin-8-yl]amino]-#N!- [(2#R!)-1-(ethanimidoylamino)propan-2-yl]benzamide] | –
8 | – | COc1ccc(-c2cnc3c(Nc4ccc(C(=O)NCC5CCS(=O)(=O)CC5)c(Cl)c4)nccn23)c(F)c1F [Example 106, 2-chloro-4-[[3-(2,3-difluoro-4-methoxy-phenyl)imidazo[1,2-a]pyrazin-8-yl]amino]-N-[(1,1-dioxothian-4-yl)methyl]benzamide; 2,2,2-trifluoroacetic acid] | IC90 [2]: 0.14 µM
9 | 0.062 | C#CCNC(=O)c1ccc(Nc2nccn3c(-c4ccc(OC)c(F)c4F)cnc23)cc1CC [Example 541, 4-[[3-(2,3-difluoro-4-methoxyphenyl)imidazo[1,2-a]pyrazin-8-yl]amino]-2-ethyl-N-prop-2-ynylbenzamide] | –
10 | 0.54 | COc1ccc(-c2cnc3c(Nc4ccc(C(=O)NCCNC(=O)CC[C@H]5C(=O)N5C)c(C)c4)nccn23)c(F)c1F [Example 338, 4-[[3-(2,3-difluoro-4-methoxyphenyl)imidazo[1,2-a]pyrazin-8-yl]amino]-2-methyl-N-[2-[3-[(2S)-1-methyl-3-oxoaziridin-2-yl]propanoylamino]ethyl]benz-amide] | –
11 | 0.18 | CCc1cc(Nc2nccn3c(-c4ccc(OC)c(F)c4F)cnc23)ccc1C(=O)NCCCNC(=O)NCCN [Example 119, N-[3-(2-aminoethylcarbamoylamino)propyl]-4-[[3-(2,3-difluoro-4-methoxy-phenyl)imidazo[1,2-a]pyrazin-8-yl]amino]-2-ethyl-benzamide] | –
12 | 0.49 | COc1ccc(-c2cnc3c(Nc4ccc(C(=O)NCCCN)c(C)c4F)nccn23)c(F)c1F [Example 479, N-(3-aminopropyl)-4-((3-(2,3-difluoro-4-methoxyphenyl)imidazo[1,2-a]pyrazin-8-yl)amino)-3-fluoro-2-methylbenzamide] | –
13 | – | CCc1cc(Nc2nccn3c(-c4ccc(OC(F)F)c(F)c4F)cnc23)ccc1C(=O)N[C@@H](C)CN [Example 312, N-[(2S)-1-aminopropan-2-yl]-4-[[3-[4-(difluoromethoxy)-2,3-difluorophenyl]imidazo[1,2-a]pyrazin-8-yl]amino]-2-ethylbenzamide; hydrochloride] | IC90 [2]: 1.2 µM
14 | 0.05 | CCc1cc(Nc2nccn3c(-c4ccc(OC)c(F)c4F)cnc23)ccc1C(=O)NCCCNC(=O)C1CNC(=N)N1 (centres unmarked) [Example 356, N-[3-[[4-[[3-(2,3-difluoro-4-methoxyphenyl)imidazo[1,2-a]pyrazin-8-yl]amino]-2-ethylbenzoyl]amino]propyl]-2-iminoimidazolidine-4-carboxamide] | –
15 | 0.13 | COc1ccc(-c2cnc3c(Nc4ccc(C(=O)NCCN5CCNCC5)c(Cl)c4)nccn23)c(F)c1F [Example 59, 2-chloro-4-[[3-(2,3-difluoro-4-methoxy-phenyl)imidazo[1,2-a]pyrazin-8-yl]amino]-N-(2-piperazin-1-ylethyl)benzamide] | –
16 | 0.77 | COc1ccc(-c2cnc3c(Nc4ccc(C(=O)NCCN5CCNC(=O)C5)c(C)c4)nccn23)cc1F [Example 216, 4-[[3-(3-fluoro-4-methoxyphenyl)imidazo[1,2-a]pyrazin-8-yl]amino]-2-methyl-N-[2-(3-oxopiperazin-1-yl)ethyl]benzamide] | –
17 | 0.51 | CCc1cc(Nc2nccn3c(-c4ccc(Oc5ccc(OCCN)cn5)c(F)c4F)cnc23)ccc1C(=O)NC [Example 512, 4-[[3-[4-[[5-(2-aminoethoxy)-2-pyridyl]oxy]-2,3-difluoro-phenyl]imidazo[1,2-a]pyrazin-8-yl]amino]-2-ethyl-N-methyl-benzamide; formic acid] | –
18 | 0.08 | Cn1cc(CNC(=O)c2ccc(Nc3nccn4c(-c5ccc(OCC#N)c(F)c5F)cnc34)cc2Cl)ccc1=O [Example 87, 2-chloro-4-[[3-[4-(cyanomethoxy)-2,3-difluoro-phenyl]imidazo[1,2-a]pyrazin-8-yl]amino]-N-[(1-methyl-6-oxo-3-pyridyl)methyl] benzamide] | –
19 | 2 | C/C=C/c1cc(Nc2nccn3c(-c4ccc(OC(F)F)cc4)cnc23)ccc1C(=O)NC [Example 151, (E)-4-((3-(4-(Difluoromethoxy)phenyl)imidazo[1,2-a]pyrazin-8-yl)amino)-N-methyl-2-(prop-1-en-1-yl)benzamide] | –
20 | 2.1 | Cc1cc(Nc2nccn3c(-c4ccc(OC(F)F)cc4)cnc23)ccc1C(=O)N(CCN1CCNCC1)C1CC1 [Example 284, N-cyclopropyl-4-[[3-[4-(difluoromethoxy)phenyl]im-idazo[1,2-a]pyrazin-8-yl]amino]-2-methyl-N-(2-piperazin-1-ylethyl)benzamide;hydrochlo-ride] | –
21 | – | CCc1cc(Nc2nccn3c(-c4ccc(OC)c(F)c4F)cnc23)ccc1C(=O)N[C@@H](CCN)C(=O)OC [Example 322, methyl (2S)-4-amino-2-[[4-[[3-(2,3-difluoro-4-methoxyphenyl)imidazo[1,2-a]pyrazin-8-yl]amino]-2-ethylbenzoyl]amino]butanoate; hydrochloride] | IC90 [2]: 4.4 µM
22 | 9.3 | Cc1cc(Nc2nccn3c(-c4ccc(OC(F)F)cc4)cnc23)ccc1C(=O)NCCCC[C@H](N)C(=O)O [Example 271, (2S)-2-amino-6-[[4-[[3-[4-(difluoromethoxy)phenyl]im-idazo[1,2-a]pyrazin-8-yl]amino]-2-methylbenzoyl]amino]hexa-noic acid] | –
23 | 1.2 | CCN(CC)C(=O)c1ccc(Nc2nccn3c(-c4ccc(OC)cc4)cnc23)cc1C [Example 220, N,N-diethyl-4-[[3-(4-methoxyphenyl)imidazo[1,2-a]pyrazin-8-yl]amino]-2-methylbenzamide] | –
24 | 0.23 | CCc1cc(Nc2nccn3c(-c4ccc(OC)c(F)c4F)cnc23)ccc1C(=O)NCC(=O)NCCN [Example 430, N-[2-(2-aminoethylamino)-2-oxo-ethyl]-4-[[3-(2,3-difluoro-4-methoxy-phenyl)imidazo[1,2-a]pyrazin-8-yl]amino]-2-ethyl-benzamide; formic acid] | –
25 | 1.2 | Cc1cc(Nc2nccn3c(-c4ccc(OC(F)F)cc4)cnc23)ccc1C(=O)N(C)CCN1CCOCC1 [Example 250, 4-[[3-[4-(difluoromethoxy)phenyl]im-idazo[1,2-a]pyrazin-8-yl]amino]-N,2-dimethyl-N-(2-morpholin-4-ylethyl)benzamide] | –
26 | 2 | Cc1cc(Nc2nccn3c(-c4ccc(OC(F)F)cc4)cnc23)ccc1C(=O)NCC1CNCCO1 (centres unmarked) [Example 242, 4-[[3-[4-(difluoromethoxy)phenyl]im-idazo[1,2-a]pyrazin-8-yl]amino]-2-methyl-N-(morpholin-2-ylmethyl)benzamide; hydrochlo-ride] | –
27 | – | CCOP(=O)(OCC)N1CCC(CCN(C)C(=O)c2ccc(Nc3nccn4c(-c5ccc(OC(F)F)cc5)cnc34)cc2C)CC1 [Example 115, N-[2-(1-diethoxyphosphoryl-4-piperidyl)ethyl]-4-[[3-[4-(difluoromethoxy)phenyl]imidazo[1,2-a]pyrazin-8-yl]amino]-N,2-dimethyl-benzamide] | IC90 (Acinetobacter baumannii, ATCC17978, 16 h, read-out: ATCC17978 IC90 [μM]): 0.85 µM
28 | 4.6 | CCc1cc(Nc2nccn3c(-c4ccc(O)c(F)c4F)cnc23)ccc1C(=O)NCCCN [Example 289, N-(3-aminopropyl)-4-[[3-(2,3-difluoro-4-hydroxyphenyl)imidazo[1,2-a]pyrazin-8-yl]amino]-2-ethylbenzamide;hydrochloride] | –
29 | 0.65 | COc1ccc(-c2cnc3c(Nc4cc(F)c(C(=O)NCCCN)c(Cl)c4)nccn23)c(F)c1F [Example 436, N-(3-aminopropyl)-2-chloro-4-((3-(2,3-difluoro-4-methoxyphenyl)imidazo[1,2-a]pyrazin-8-yl)amino)-6-fluorobenzamide] | –

Reference: US20230012368A1 (Hoffmann-La Roche Inc., priority 2018, published 2023)
